Measurements: patent publication US9943082B2, “Ternary fungicidal mixtures” (BAYER CROPSCIENCE AG, priority 2012, dated 2018)

Test system: Puccinia triticina
Assay: Puccinia triticina test (wheat)/preventive
Format: in vivo
Conditions: preventive spray, evaluated 8 days after inoculation
Experimental: To produce a suitable preparation of active compound, 1 part by weight of active compound or active compound combination is mixed with the stated amounts of solvent and emulsifier, and the concentrate is diluted with water to the desired concentration.
To test for preventive activity, young plants are sprayed with the preparation of active compound or active compound combination at the stated rate of application.
After the spray coating has been dried, the plants are sprayed with a spore suspension of Puccinia triticina. The plants remain for 48 hours in an incubation cabinet at approximately 20° C. and a relative atmospheric humidity of approximately 100%.
The plants are placed in the greenhouse at a temperature of approximately 20° C. and a relative atmospheric humidity of approximately 80%.
The test is evaluated 8 days after the inoculation. 0% means an efficacy which corresponds to that of the untreated control, while an efficacy of 100% means that no disease is observed.

Structure (SMILES)	Efficacy in % found (10 ppm a.i.)	further results
OC(Cc1ccccc1Cl)(Cn1nc[nH]c1=S)C1(Cl)CC1 (centres unmarked) [2.23 prothioconazole, prothioconazole]		Efficacy in % found (20 ppm a.i.): 0%
CO/C=C(/C(=O)OC)c1ccccc1Oc1cc(Oc2ccccc2C#N)ncn1 [3.2 azoxystrobin, azoxystrobin]	78%	
COC(=O)N(OC)c1ccccc1COc1ccn(-c2ccc(Cl)cc2)n1 [3.14 pyraclostrobin, pyraclostrobin]	22%	
CON=C(C(=O)OC)c1ccccc1CON=C(C)c1cccc(C(F)(F)F)c1 [3.15 trifloxystrobin, trifloxystrobin]	33%	
CC1CC(C)(C)c2cccc(NC(=O)c3cn(C)nc3C(F)F)c21 (centres unmarked) [(I-1), 3-(difluoromethyl)-1-methyl-N-(1,1,3-trimethyl-2,3-dihydro-1H-inden-4-yl)-1H-pyrazole-4-carboxamide]		Efficacy in % found (30 ppm a.i.): 78%
